# Source: PMC11191402, “High-Affinity NIR-Fluorescent Inhibitors for Tumor Imaging via Carbonic Anhydrase IX” (Bioconjugate Chemistry, 2024)
# How the values were obtained:
# human recombinant CAVA = target: T1, human recombinant CAVA (Homo sapiens, UniProt P35218); assay: Fluorescence-based thermal shift assay (FTSA), CAVA; format: binding; conditions: 37 °C, pH 7.0
# T1 construct: Most isozymes were truncated, and only the catalytic domains of the proteins were produced; made in house; host or cells: bacterial expression system
# Experimental: (§1) The binding affinities of the four NIR-fluorescent compounds to 12 catalytically active recombinant CA isozymes were determined by the fluorescence-based thermal shift assay (FTSA), and the dissociation constants (Kd’s) at physiological pH (pH 7.0) and 37 °C are listed in Table 1.
# (§2) All 12 catalytically active human CA isozymes were prepared recombinantly as previously described. Most isozymes were truncated, and only the catalytic domains of the proteins were produced.[9],[56] All isozymes were expressed in a bacterial expression system except that CAIX was expressed in mammalian cells. The proteins were chromatographically purified via immobilized metal affinity chromatography, ion-exchange, or p-aminomethylbenzenesulfonamide-sepharose affinity chromatography. Protein purity was confirmed by SDS-PAGE, and MW was confirmed by mass spectrometry with 1 Da precision, as predicted from theoretical protein sequence.
# (§3) The fluorescence-based thermal shift assay (FTSA) was used to determine the binding affinity of compounds for all catalytically active CA isozymes. The assay is based on the thermal stabilization of proteins by bound ligands and distinguishes itself in its ability to determine extremely high affinity (picomolar Kd) of compound binding to CAIX. The experiments were performed with a QIAGEN Rotor-Gene Q instrument using either the blue channel (365 ± 20 nm excitation and 460 ± 15 nm emission detection) or the green channel (470 ± 10 nm excitation and 510 ± 5 nm detection). The protein solution, in the absence and presence of various compound concentrations ranging from 3 to 200 μM (2× dilutions), was heated from 25 to 99 °C (heating rate, 1 °C/min). The CA isozyme melting temperature Tm was determined by following the fluorescence of 8-anilino-1-naphthalenesulfonate (ANS) or Glomelt dye. The samples consisted of 5 μM protein (or 10 μM CAIV), different concentrations of the tested compound, and 50 μM ANS or 200× diluted Glomelt in 50 mM sodium phosphate buffer (at pH 7.0) containing 100 mM sodium chloride and 2–4% (v/v) dimethyl sulfoxide. To obtain the dissociation constant (at 37 °C), data analysis was performed, and the curves were fit using the Thermott Web server.[57]
# [1] = Absorption, emission and fluorescence quantum yield measurement; format: physicochemical; conditions: for λabs: absorption spectrum; for λem (fluorescence maximum): emission spectrum
# Experimental: Figure S1. Absorption and emission spectra of NIR inhibitors. GZ22-1 λ abs= 783 nm, λ em= 807
# Norm. absorption (arb. units)
# Norm. photoluminescence (arb. units)
# Norm absorption (arb. units) […]
# Table S1. Fluorescence quantum yield comparison of NIR-fluorescent compounds. Compound
# concentration was 100 nM in PBS. L a-c – excitation radiation integrals, P b-c – fluorescence
# Nr. Compound Excitation La Lb Lc A(1) Pb Pc QY(2)
# (1)Sample absorbance . (2)Fluorescence quantum yield: .LPc―(1―A)Pb […]
# human recombinant CAIV = target: T2, human recombinant CAIV (Homo sapiens, UniProt P22748); assay: Fluorescence-based thermal shift assay (FTSA), CAIV; format: binding; conditions: 37 °C, pH 7.0
# T2 construct: Most isozymes were truncated, and only the catalytic domains of the proteins were produced; made in house; host or cells: bacterial expression system
# Experimental: as §1, §2, §3
# human recombinant CAIII = target: T3, human recombinant CAIII (Homo sapiens, UniProt P07451); assay: Fluorescence-based thermal shift assay (FTSA), CAIII; format: binding; conditions: 37 °C, pH 7.0
# T3 construct: made in house; host or cells: bacterial expression system
# Experimental: as §1, §2, §3
# human recombinant CAVI = target: T4, human recombinant CAVI (Homo sapiens, UniProt P23280); assay: Fluorescence-based thermal shift assay (FTSA), CAVI; format: binding; conditions: 37 °C, pH 7.0
# T4 construct: Most isozymes were truncated, and only the catalytic domains of the proteins were produced; made in house; host or cells: bacterial expression system
# Experimental: as §1, §2, §3
# [2] = target: T5, CAIX expressed on cell membranes of HeLa cells (Homo sapiens, UniProt Q16790); assay: Fluorescence microscopy staining of live HeLa cells; format: cell-based; conditions: for staining of HeLa cells (NIR fluorescence microscopy): 250 nM compound, pCMV-CAIX-transfected cells, normoxia
# T5 construct: an open reading frame for the full-length CAIX protein (1–459 amino acids) without a tag; expressed in transfected cells; host or cells: HeLa cells transfected with pCMV-CAIX (TurboFect), normoxia
# From the text: Live HeLa cell culture was used for visualization of the NIR-fluorescent compound binding to CAIX expressed on cell membranes (Figures 3 and S2). […] Hypoxic conditions were insufficient for CAIX-specific fluorescence detection (Figure S3). Transfected cells expressed 10-fold more CAIX protein than cells grown under hypoxia, as determined by dosing the fluorescein-containing compound GZ19-32. […] We should point out that microphotographs in Figures 3 and S2 were taken at different exposure times to ensure good visualization quality. Nevertheless, all four compounds were suitable for direct visualization of CAIX expressed on transfected cell membranes.
# For visualization of CAIX in live cells, HeLa cells were seeded in 12-well plates, and the next day they were transfected with the pCMV-CAIX plasmid to induce CAIX expression under normoxia. The TurboFect Transfection Reagent (Thermo Fisher) was used for this purpose according to manufacturer’s directions. Cells were stained and visualized next day after transfection. Nontransfected cells, grown under normoxia, were used as a control. For the induction of CAIX expression without transfection, cells were cultured under hypoxia for 3 days.
# For cell imaging, live cells were incubated with the recombinant monoclonal antibody to CAIX (M75) (Absolute Antibody, #Ab00414–1.1) in the CO2 incubator for 30 min. The antibody stock solution (1 mg/mL) was used at a dilution of 1:150 in FluoroBright (FB)(Thermo Fisher) medium. After washing (3 × 5 min with DMEM in RT, gentle rock), cells were incubated with secondary Alexa Fluor 488 goat antimouse antibodies (2 mg/mL, Thermo Fisher), at a dilution of 1:200 in FB, in a CO2 incubator for 30 min. After washing (3 × 5 min with DMEM in RT and 2 × 1 min with PBS), cells were incubated with NIR-fluorescent inhibitors ([…] in PBS) in a CO2 incubator for 5–8 min. After washing (2 min + 2 × 1 min with PBS), PBS was replaced by FB, and 15 μL of NucBlue Live Cell Stain ReadyProbes reagent (Thermo Fisher) was added per well. After 5 min, cells were observed and photographed using an automated fluorescence microscope EVOS FL Auto (Thermo Fisher).
# human recombinant CAXIV = target: T6, human recombinant CAXIV (Homo sapiens, UniProt Q9ULX7); assay: Fluorescence-based thermal shift assay (FTSA), CAXIV; format: binding; conditions: 37 °C, pH 7.0
# T6 construct: Most isozymes were truncated, and only the catalytic domains of the proteins were produced; made in house; host or cells: bacterial expression system
# Experimental: as §1, §2, §3
# human recombinant CAXII = target: T7, human recombinant CAXII (Homo sapiens, UniProt O43570); assay: Fluorescence-based thermal shift assay (FTSA), CAXII; format: binding; conditions: 37 °C, pH 7.0
# T7 construct: Most isozymes were truncated, and only the catalytic domains of the proteins were produced; made in house; host or cells: bacterial expression system
# Experimental: as §1, §2, §3
# human recombinant CAXIII = target: T8, human recombinant CAXIII (Homo sapiens, UniProt Q8N1Q1); assay: Fluorescence-based thermal shift assay (FTSA), CAXIII; format: binding; conditions: 37 °C, pH 7.0
# T8 construct: made in house; host or cells: bacterial expression system
# Experimental: as §1, §2
# as §3, with “To obtain the dissociation constant (at 37 °C), data analysis was performed, and the curves were fit using the Thermott Web server.[57]” left out
# T1 sequence (P35218 39-296 limits assumed): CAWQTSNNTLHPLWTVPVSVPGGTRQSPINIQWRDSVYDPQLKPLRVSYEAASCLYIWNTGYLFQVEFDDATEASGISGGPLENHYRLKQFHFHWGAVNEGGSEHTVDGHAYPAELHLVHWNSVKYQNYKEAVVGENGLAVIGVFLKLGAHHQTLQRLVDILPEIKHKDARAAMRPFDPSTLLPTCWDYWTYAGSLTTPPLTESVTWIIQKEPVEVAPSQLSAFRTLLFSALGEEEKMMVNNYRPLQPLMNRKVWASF
# T8 sequence (Q8N1Q1 whole entry): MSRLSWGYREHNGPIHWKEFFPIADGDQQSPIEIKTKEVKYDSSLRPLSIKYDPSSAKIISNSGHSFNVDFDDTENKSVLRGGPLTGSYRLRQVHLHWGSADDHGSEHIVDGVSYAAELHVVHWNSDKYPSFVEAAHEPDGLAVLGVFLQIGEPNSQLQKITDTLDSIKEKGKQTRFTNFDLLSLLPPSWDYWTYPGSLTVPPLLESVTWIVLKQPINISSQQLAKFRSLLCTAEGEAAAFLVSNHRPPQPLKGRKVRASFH
# T3 sequence (P07451 whole entry): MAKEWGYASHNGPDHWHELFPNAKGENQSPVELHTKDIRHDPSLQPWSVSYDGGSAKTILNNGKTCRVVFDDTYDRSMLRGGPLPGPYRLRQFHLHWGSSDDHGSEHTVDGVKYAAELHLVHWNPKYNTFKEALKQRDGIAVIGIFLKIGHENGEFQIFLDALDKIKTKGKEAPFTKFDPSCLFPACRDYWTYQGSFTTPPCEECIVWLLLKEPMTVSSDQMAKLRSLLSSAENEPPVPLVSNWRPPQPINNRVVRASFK
# T7 sequence (O43570 30-289 limits assumed): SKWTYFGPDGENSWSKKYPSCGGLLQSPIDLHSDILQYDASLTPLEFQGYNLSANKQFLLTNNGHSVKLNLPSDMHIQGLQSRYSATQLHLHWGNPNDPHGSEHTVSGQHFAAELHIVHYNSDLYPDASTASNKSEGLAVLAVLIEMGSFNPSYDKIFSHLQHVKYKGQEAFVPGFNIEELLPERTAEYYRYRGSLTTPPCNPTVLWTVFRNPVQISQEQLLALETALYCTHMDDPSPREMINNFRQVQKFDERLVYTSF
# T6 sequence (Q9ULX7 20-278 limits assumed): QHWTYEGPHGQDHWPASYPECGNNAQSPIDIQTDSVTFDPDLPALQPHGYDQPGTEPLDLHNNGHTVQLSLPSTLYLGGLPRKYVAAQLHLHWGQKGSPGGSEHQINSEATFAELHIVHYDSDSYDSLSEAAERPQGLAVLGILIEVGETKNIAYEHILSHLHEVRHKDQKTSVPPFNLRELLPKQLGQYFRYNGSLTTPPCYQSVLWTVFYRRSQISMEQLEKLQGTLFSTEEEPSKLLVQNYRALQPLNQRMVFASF
# T4 sequence (P23280 21-278 limits assumed): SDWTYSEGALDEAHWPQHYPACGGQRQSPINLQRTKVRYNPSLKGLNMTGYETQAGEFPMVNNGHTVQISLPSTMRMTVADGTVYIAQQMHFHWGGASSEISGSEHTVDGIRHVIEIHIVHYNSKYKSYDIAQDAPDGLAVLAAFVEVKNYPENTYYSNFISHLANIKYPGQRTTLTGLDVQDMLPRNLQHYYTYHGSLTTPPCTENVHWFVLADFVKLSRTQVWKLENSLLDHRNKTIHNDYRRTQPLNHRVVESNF
# T2 sequence (P22748 21-285 limits assumed): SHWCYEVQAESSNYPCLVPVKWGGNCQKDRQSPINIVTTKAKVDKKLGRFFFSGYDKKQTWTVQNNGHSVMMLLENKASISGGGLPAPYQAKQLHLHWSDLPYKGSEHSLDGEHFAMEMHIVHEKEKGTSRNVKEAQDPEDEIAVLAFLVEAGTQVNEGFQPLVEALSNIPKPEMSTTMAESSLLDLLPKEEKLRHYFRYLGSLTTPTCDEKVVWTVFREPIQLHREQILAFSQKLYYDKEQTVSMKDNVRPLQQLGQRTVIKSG
Kd (human recombinant CAVA) [µM],λabs [1] [nm],λem (fluorescence maximum) [1] [nm],Kd (human recombinant CAIV) [µM],Kd (human recombinant CAIII) [µM],Kd (human recombinant CAVI) [µM],Kd (human recombinant CAXIV) [µM],Kd (human recombinant CAXII) [µM],Kd (human recombinant CAXIII) [µM],"fluorescence signal compared to the other compounds at identical exposure conditions ([2]; 250 nM, transfected HeLa, Cy7 filter)","QY (fluorescence quantum yield) ([1]; 100 nM in PBS, excitation 650nm)",Compound,staining of HeLa cells (NIR fluorescence microscopy) [2]
2,783,805,2,20,0.7,0.1,0.06,–,–,–,"CC1(C)C(/C=C/C2=C(Oc3cccc(CC(=O)NCCCOCCOCCOCCCNC(=O)CCS(=O)(=O)c4c(F)c(F)c(S(N)(=O)=O)c(F)c4NC4CCCCCCC4)c3)C(=C/C=C3\N(CCCCS(=O)(=O)[O-])c4ccccc4C3(C)C)/CCC2)=[N+](CCCCS(=O)(=O)[O-])c2ccccc21.[Na+] [GZ21-19, Sodium 4-((Z)-2-((E)-2-(2-(3-(20-((2-(Cyclooctylamino)-3,5,6-trifluoro-4-sulfamoylphenyl)sulfonyl)-2,18-dioxo-7,10,13-trioxa-3,17-diazaicosyl)phenoxy)-3-((E)-2-(3,3-dimethyl-1-(4-sulfonatobutyl)-3H-indol-1-ium-2-yl)vinyl)cyclohex-2-en-1-ylidene)ethylidene)-3,3-dimethylindolin-1-yl)butane-1-sulfonate]",stained the membranes of pCMV-CAIX-transfected cells
2,783,807,8,5,0.5,0.09,0.08,0.005,best fluorescence signal,–,"CC1(C)C(/C=C/C2=C(Oc3ccc(CCC(=O)NCCOCCOCCOCCOCCOCCOCCOCCOCCOCCOCCOCCNC(=O)CCS(=O)(=O)c4c(F)c(F)c(S(N)(=O)=O)c(F)c4NC4CCCCCCC4)cc3)C(=C/C=C3\N(CCCCS(=O)(=O)[O-])c4ccccc4C3(C)C)/CCC2)=[N+](CCCCS(=O)(=O)[O-])c2ccccc21.[Na+] [GZ22-4, Sodium 4-((Z)-2-((E)-2-(2-(4-(43-((2-(Cyclooctylamino)-3,5,6-trifluoro-4-sulfamoylphenyl)sulfonyl)-3,41-dioxo-7,10,13,16,19,22,25,28,31,34,37-undecaoxa-4,40-diazatritetracontyl)phenoxy)-3-((E)-2-(3,3-dimethyl-1-(4-sulfonatobutyl)-3H-indol-1-ium-2-yl)vinyl)cyclohex-2-en-1-ylidene)ethylidene)-3,3-dimethylindolin-1-yl)butane-1-sulfonate]",stained the membranes of pCMV-CAIX-transfected cells
10,637,–,8,30,1,0.1,0.05,0.01,–,0.43,"CC1(C)C(/C=C/C2=C(NCCCOCCOCCOCCCNC(=O)CCC(=O)NCCS(=O)(=O)c3c(F)c(F)c(S(N)(=O)=O)c(F)c3NC3CCCCCCC3)C(=C/C=C3\N(CCCCS(=O)(=O)[O-])c4ccccc4C3(C)C)/CCC2)=[N+](CCCCS(=O)(=O)[O-])c2ccccc21.[Na+] [AZ21-6, Sodium 4-((Z)-2-((E)-2-(2-((1-((2-(Cyclooctylamino)-3,5,6-trifluoro-4-sulfamoylphenyl)sulfonyl)-4,7-dioxo-12,15,18-trioxa-3,8-diazahenicosan-21-yl)amino)-3-((E)-2-(3,3-dimethyl-1-(4-sulfonatobutyl)-3H-indol-1-ium-2-yl)vinyl)cyclohex-2-en-1-ylidene)ethylidene)-3,3-dimethylindolin-1-yl)butane-1-sulfonate]",stained the membranes of pCMV-CAIX-transfected cells
1,783,807,7,30,0.7,0.1,0.2,0.008,–,–,"CC1(C)C(/C=C/C2=C(Oc3ccc(CCC(=O)NCCCOCCOCCOCCCNC(=O)CCS(=O)(=O)c4c(F)c(F)c(S(N)(=O)=O)c(F)c4NC4CCCCCCC4)cc3)C(=C/C=C3\N(CCCCS(=O)(=O)[O-])c4ccccc4C3(C)C)/CCC2)=[N+](CCCCS(=O)(=O)[O-])c2ccccc21.[Na+] [GZ22-1, Sodium 4-((Z)-2-((E)-2-(2-(4-(21-((2-(Cyclooctylamino)-3,5,6-trifluoro-4-sulfamoylphenyl)sulfonyl)-3,19-dioxo-8,11,14-trioxa-4,18-diazahenicosyl)phenoxy)-3-((E)-2-(3,3-dimethyl-1-(4-sulfonatobutyl)-3H-indol-1-ium-2-yl)vinyl)cyclohex-2-en-1-ylidene)ethylidene)-3,3-dimethylindolin-1-yl)butane-1-sulfonate]",stained the membranes of pCMV-CAIX-transfected cells
